Experimental data taken from patent publication US5079358A, “6H-pyrazolo-[4,5,1-d,e]acridin-6-one derivatives having anit-tumor activity” (Kyowa Hakko Kogyo Co., Ltd., priority 1988, dated 1992).
≈ marks a conversion by molar mass, not a printed value.

Legend:
[1] = system: human cancer cells (HeLaS3); assay: Inhibitory effect on growth of human cancer cells (HeLaS3); format: cell-based; settings: Homo sapiens, HeLa S3, 72 hours at 37° C., Neutral Red staining, 550 nm, read-out: IC50
Procedure: Inhibitory effect on growth of human cancer cells (HeLaS3):
HeLaS, cells were suspended in a medium comprising MEM medium (Nissui Pharmaceutical Co., Ltd.) and 2 mM glutamine (hereinafter referred to as Medium A) to a concentration of 3×10^4 cells/ml. The cell suspension thus prepared was put into wells of a 96-well microtiter plate in an amount of 0.1 ml/well. The cells on the plate were incubated in a CO2 -incubater at 37° C. for 20 hours, and 0.05 ml of a sample containing a test compound and appropriately diluted with Medium A was added to each well. The cells were further incubated in the CO2 -incubater at 37° C. for 72 hours. After the culture supernatant was removed, a medium comprising Medium A and 0.02% Neutral Red was added to the residue in an amount of 0.1 ml/well, followed by incubation at 37° C. for one hour in the CO2 -incubater, whereby the cells were stained. The culture supernatant was removed and the residue was washed once with physiological saline solution. The pigment was extracted with 0.001 N-HCl/30%-ethanol, and the absorbance was determined at 550 nm with a microplate reader. The absorbance determined for intact cells was compared with that for the cells treated with the test compound of a known concentration, and the concentration of the test compound for inhibiting 50% growth of the cells (IC50) was calculated.

P388 ascites tumor = assay: Effect on P388 ascites tumor (increased life span); format: in vivo; settings: P388, ip, intraperitoneal, 24 hours after implantation, male CDF1 mouse
Procedure: Effect on P388 ascites tumor:
P388 tumor cells (10^6 cells) were implanted intraperitoneally into a DBA/2 mouse and the cells were collected from the ascitic fluid of the animal 7 days after the implantation. The cells were ashed once with sterilized physiological saline solution and then suspended in a sterilized physiological saline solution to prepare a cell suspension containing 5×10^6 cells/ml. The suspension (0.2 ml) was intraperitoneally inoculated into a male CDF1 mouse aged 6 weeks. A test compound was dissolved in physiological saline solution and intraperitoneally administered to the animal 24 hours after implantation of the tumor cells. One test group comprised 5 mice. The mean survival time (days) of a test group which received a test compound at a specified concentration was calculated as T from survival days of animals in the group. ON the other hand, the mean survival time (days) of the non-administered group (C) was obtained in the same manner, and the increased life span (ILS %) was calculated as [(T-C)/C]×100 (%).

Compound	IC50 [1] [µg/mL]	further results
Cc1nn2c3ccccc3c(=O)c3c(N)ccc1c32 [Compound 11, 5-Amino-2-methyl-6H-pyrazolo[4,5,1-d,e]acridin-6-one]	2.16 (≈ 8.67 µM)	–
COc1cccc2c1c(=O)c1c(NCCCN)ccc3c(CNCCCN)nn2c31 [Compound 26, 5-(3-Aminopropyl)amino-2-(3-aminopropyl)aminomethyl-7-methoxy-6H-pyrazolo[4,5,1-d,e]acridin-6-one]	0.22 (≈ 0.539 µM)	ILS at 25 mg/kg (P388 ascites tumor): 28%
Nc1ccc2c(CNCCN3CCOCC3)nn3c4ccccc4c(=O)c1c23 [Compound 17, 5-Amino-2-(2-morpholinoethyl)aminomethyl-6H-[4,5,1-d,e]-acridin-6-one]	1.96 (≈ 5.19 µM)	–
CN(C)CCNCc1nn2c3cccc(O)c3c(=O)c3c(NCCNCCO)ccc1c32 [Compound 42]	0.12 (≈ 0.274 µM)	–
NCCNc1ccc2c(CNCCOCCO)nn3c4cccc(O)c4c(=O)c1c23 [Compound 62, 5-(2-Aminoethyl)amino-7-hydroxy-2-[2-(2-hydroxyethyloxy)ethyl]aminomethyl-6H-pyrazolo[4,5,1-d,e]acridin-6-one]	0.0023 (≈ 0.00559 µM)	–
CCN(CC)CCNCc1nn2c3ccccc3c(=O)c3c(NCCN(CC)CC)ccc1c32 [Compound 36, 5-(2-Diethylaminoethyl)amino-2-(2-diethylaminoethyl)aminomethyl-6H-pyrazolo[4,5,1-d,e]acridin-6-one]	3.1 (≈ 6.7 µM)	–
CN(C)CCCNCc1nn2c3ccccc3c(=O)c3c(NCCCN(C)C)ccc1c32 [Compound 39, 5-(3-Dimethylaminopropyl)amino-2-(3-dimethylaminopropyl)aminomethyl-6H-pyrazolo[4,5,1-d,e]acridin-6-one]	8.33 (≈ 19.2 µM)	–
O=c1c2ccccc2n2nc(CNCCN3CCOCC3)c3ccc(NCCN4CCOCC4)c1c32 [Compound 35, 5-(2-Morpholinoethyl)amino-2-(2-morpholinoethyl)aminomethyl-6H-pyrazolo[4,5,1-d,e]acridin-6-one]	3.37 (≈ 6.87 µM)	–
COc1cccc2c1c(=O)c1c(NCCN)ccc3c(CNCCN)nn2c31 [Compound 25, 5-(2-Aminoethyl)amino-2-(2-aminoethyl)aminomethyl-7-methoxy-6H-pyrazolo[4,5,1-d,e]acridin-6-one]	–	ILS at 25 mg/kg (P388 ascites tumor): 39%
COc1cccc2c1C(=O)c1c(O)c3c(c(O)c1C2=O)C[C@@](O)(C(=O)CO)C[C@@H]3O[C@H]1C[C@H](N)[C@H](O)[C@H](C)O1 [Adriamycin, reference compound]	0.009 to 0.05 (≈ 0.0166 to 0.092 µM)	–
Nc1ccc2c(CNCCNCCO)nn3c4ccccc4c(=O)c1c23 [Compound 16, 5-Amino-2-[2-(2-hydroxyethylamino)ethyl]aminomethyl-6H-[4,5,1-d,e]acridin-6-one]	0.87 (≈ 2.48 µM)	–
O=C(NCCN1CCOCC1)c1nn2c3ccccc3c(=O)c3cccc1c32 [Compound 5, 2-(2-Morpholinoethyl)aminocarbonyl-6H-pyrazolo[4,5,1-d,e]acridin-6-one]	7.2 (≈ 19.1 µM)	–
NCCNc1ccc2c(CNCCSCCO)nn3c4cccc(O)c4c(=O)c1c23 [Compound 59, 5-(2-Aminoethyl)amino-7-hydroxy-2-[2-(2-hydroxyethylthio)ethyl]aminomethyl-6H-pyrazolo[4,5,1-d,e]acridin-6-one]	–	ILS at 12.5 mg/kg (P388 ascites tumor): > 134%
CO[C@@]12[C@H](COC(N)=O)C3=C(C(=O)C(C)=C(N)C3=O)N1C[C@@H]1N[C@@H]12 [Mitomycin C, reference compound]	–	ILS at 4 mg/kg (P388 ascites tumor; dose 4-6 mg/kg): 57 to 67%
O=c1c2ccccc2n2nc(CN(CCO)CCO)c3cccc1c32 [Compound 7, 2-Bis(2-hydroxyethyl)aminomethyl-6H-pyrazolo[4,5,1-d,e]acridin-6-one]	8.89 (≈ 26.4 µM)	–
CN(C)CCNCc1nn2c3ccccc3c(=O)c3c(NCCN(C)C)ccc1c32 [Compound 23, 5-(2-Dimethylaminoethyl)amino-2-(2-dimethylaminoethyl)aminomethyl-6H-pyrazolo[4,5,1-d,e]acridin-6-one]	–	ILS at 50 mg/kg (P388 ascites tumor): 46%
NCCCCNCc1nn2c3ccccc3c(=O)c3c(NCCCCN)ccc1c32 [Compound 37, 5-(4-Aminobutyl)amino-2-(4-aminobutyl)aminomethyl-6H-pyrazolo[4,5,1-d,e]acridin-6-one]	2.11 (≈ 5.19 µM)	–
CNCCNCc1nn2c3ccccc3c(=O)c3c(NCCNC)ccc1c32 [Compound 33, 5-(2-Methylaminoethyl)amino-2-(2-methylaminoethyl)aminomethyl-6H-pyrazolo[4,5,1-d,e]acridin-6-one]	2.69 (≈ 7.11 µM)	–
CN(C)CCCNCc1nn2c3cccc(O)c3c(=O)c3c(NCCCN(C)C)ccc1c32 [Compound 70, 5-(3-Dimethylaminopropyl)amino-2-(3-dimethylaminopropyl)aminomethyl-7-hydroxy-6H-pyrazolo[4,5,1-d,e]acridin-6-one]	–	ILS at 12.5 mg/kg (P388 ascites tumor): > 112%
CN(C)CCNC(=O)c1nn2c3ccccc3c(=O)c3cccc1c32 [Compound 3, 2-(2-Dimethylaminoethyl)aminocarbonyl-6H-pyrazolo[4,5,1-d,e]acridin-6-one]	2.5 (≈ 7.48 µM)	–
O=c1c2c(O)cccc2n2nc(CNCCO)c3ccc(Br)c1c32 [Compound 67, 5-Bromo-7-hydroxy-2-(2-hydroxyethyl)aminomethyl-6H-pyrazolo[4,5,1-d,e]acridin-6-one]	–	ILS at 75 mg/kg (P388 ascites tumor; dose 75 mg/kg): 31%
NCCNCc1nn2c3ccccc3c(=O)c3c(NCCN)ccc1c32 [Compound 21, 5-(2-Aminoethyl)amino-2-(2-aminoethyl)aminomethyl-6H-pyrazolo[4,5,1-d,e]acridin-6-one]	–	ILS at 37.5 mg/kg (P388 ascites tumor; dose 37.5 mg/kg): 50%
O=c1c2c(O)cccc2n2nc(CNCCOCCO)c3ccc(NCCNCCO)c1c32 [Compound 66, 7-Hydroxy-5-[2-(2-hydroxyethylamino)ethyl]amino-2-[2-(2-hydroxyethyloxy)ethyl]aminomethyl-6H-pyrazolo[4,5,1-d,e]acridin-6-one]	–	ILS at 12.5 mg/kg (P388 ascites tumor): > 133%
O=c1c2ccccc2n2nc(CNCCN3CCOCC3)c3cccc1c32 [Compound 8, 2-(2-Morpholinoethyl)aminomethyl-6H-pyrazolo[4,5,1-d,e]acridin-6-one]	4.9 (≈ 13.5 µM)	–
CCNCCNCc1nn2c3ccccc3c(=O)c3c(NCCNCC)ccc1c32 [Compound 34, 5-(2-Ethylaminoethyl)amino-2-(2-ethylaminoethyl)aminomethyl-6H-pyrazolo[4,5,1-d,e]acridin-6-one]	1.72 (≈ 4.23 µM)	–
CN(C)CCNCc1nn2c3cccc(O)c3c(=O)c3c(NCCN(C)C)ccc1c32 [Compound 30, 5-(2-Dimethylaminoethyl)amino-2-(2-dimethylaminoethyl)aminomethyl-7-hydroxy-6H-pyrazolo[4,5,1-d,e]acridin-6-one]	–	ILS at 50 mg/kg (P388 ascites tumor): 61%
CNCCNc1ccc2c(CN(C)CCN)nn3c4ccccc4c(=O)c1c23 [Compound 38, 2-[N-(2-aminoethyl)-N-methyl]aminomethyl-5-(2-methylaminoethyl)amino-6H-pyrazolo[4,5,1-d,e]acridin-6-one]	2.89 (≈ 7.64 µM)	–
CNCCCNCc1nn2c3ccccc3c(=O)c3c(NCCCNC)ccc1c32 [Compound 32, 5-(3-Methylaminopropyl)amino-2-(3-methylaminopropyl)aminomethyl-6H-pyrazolo[4,5,1-d,e]acridin-6-one]	1.16 (≈ 2.85 µM)	–
COc1cccc2c1c(=O)c1cccc3c(C(=O)NCCN(C)C)nn2c31 [Compound 4, 7-Methoxy-2-(2-dimethylaminoethyl)aminocarbonyl-6H-pyrazolo[4,5,1-d,e]acridin-6-one]	2.98 (≈ 8.18 µM)	–
NCCNCc1nn2c3ccccc3c(=O)c3c(N)ccc1c32 [Compound 15, 5-Amino-2-(2-aminoethyl]aminomethyl-6H-pyrazolo[4,5,1-d,e]acridin-6-one]	0.71 (≈ 2.31 µM)	–
